pIC50: −log10 of the molar value. Structures can show the parent of a compound that is named as a salt.
What was measured:
[1] = biological target: T1, JAK2 tyrosine kinase (Homo sapiens, UniProt O60674); assay: Test 1: inhibitory activity to JAK2 tyrosine kinase (ELISA); type: biochemical; details: 25 μM ATP in substrate solution, 30° C. for 1 hour, n=2
T1 construct: purchased Carnabioscience Co
Method in brief: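 Human JAK2 (diluted to 0.75 nM before addition) phosphorylated a biotinylated peptide on streptavidin plates for 1 h at 30 °C. The substrate mix held 625 nM peptide, 25 μM ATP and 25 mM MgCl2 in 15 mM Tris pH 7.5, 0.01% Tween-20 and 1 mM DTT. Phosphotyrosine was detected by HRP antibody/TMB at 450 nm, and IC50 was obtained by non-linear regression; duplicates were run.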

[2] = biological target: T2, JAK3 tyrosine kinase (Homo sapiens, UniProt P52333); assay: Test 1: inhibitory activity to JAK3 tyrosine kinase (ELISA); type: biochemical; details: 25 μM ATP in substrate solution, 30° C. for 1 hour, n=2
T2 construct: purchased Carnabioscience Co
T2 sequence (P52333 1-1124): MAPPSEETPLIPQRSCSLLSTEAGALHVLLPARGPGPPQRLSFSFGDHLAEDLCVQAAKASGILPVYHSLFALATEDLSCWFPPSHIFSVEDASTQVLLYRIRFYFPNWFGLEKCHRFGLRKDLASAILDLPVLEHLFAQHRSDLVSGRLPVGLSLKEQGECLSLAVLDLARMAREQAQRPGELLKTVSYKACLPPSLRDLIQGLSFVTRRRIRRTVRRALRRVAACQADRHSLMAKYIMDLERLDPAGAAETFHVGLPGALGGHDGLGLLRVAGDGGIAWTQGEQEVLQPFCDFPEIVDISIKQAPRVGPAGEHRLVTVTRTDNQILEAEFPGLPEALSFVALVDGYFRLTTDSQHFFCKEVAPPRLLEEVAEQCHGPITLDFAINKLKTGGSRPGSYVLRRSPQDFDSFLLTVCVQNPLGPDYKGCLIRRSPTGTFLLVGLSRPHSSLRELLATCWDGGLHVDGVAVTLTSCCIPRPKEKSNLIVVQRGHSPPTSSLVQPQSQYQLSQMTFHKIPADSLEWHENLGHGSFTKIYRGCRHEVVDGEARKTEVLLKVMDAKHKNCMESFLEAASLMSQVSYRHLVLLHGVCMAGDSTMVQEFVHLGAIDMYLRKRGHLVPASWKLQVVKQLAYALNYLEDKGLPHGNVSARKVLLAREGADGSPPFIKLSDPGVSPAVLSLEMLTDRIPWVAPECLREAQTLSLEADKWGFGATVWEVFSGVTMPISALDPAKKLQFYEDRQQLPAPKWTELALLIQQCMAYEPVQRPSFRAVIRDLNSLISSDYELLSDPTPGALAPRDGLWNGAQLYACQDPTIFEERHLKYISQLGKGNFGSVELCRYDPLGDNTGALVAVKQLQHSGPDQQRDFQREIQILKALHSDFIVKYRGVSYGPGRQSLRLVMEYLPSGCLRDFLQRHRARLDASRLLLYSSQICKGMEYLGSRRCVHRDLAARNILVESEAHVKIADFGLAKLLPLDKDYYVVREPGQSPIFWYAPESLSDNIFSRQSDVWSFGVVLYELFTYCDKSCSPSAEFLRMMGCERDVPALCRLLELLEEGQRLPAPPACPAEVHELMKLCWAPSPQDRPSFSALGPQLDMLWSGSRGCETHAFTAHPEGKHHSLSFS
Method in brief: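 ELISA of JAK3 kinase activity with absorbance read at 450 nm. Compounds were tested from DMSO dilution series at 100-fold the measurement concentrations (1000–0.01 μM), diluted up to 20 times in assay buffer, against a DMSO negative control. IC50 was estimated by non-linear regression of absorbance.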

T1 sequence (O60674 whole entry): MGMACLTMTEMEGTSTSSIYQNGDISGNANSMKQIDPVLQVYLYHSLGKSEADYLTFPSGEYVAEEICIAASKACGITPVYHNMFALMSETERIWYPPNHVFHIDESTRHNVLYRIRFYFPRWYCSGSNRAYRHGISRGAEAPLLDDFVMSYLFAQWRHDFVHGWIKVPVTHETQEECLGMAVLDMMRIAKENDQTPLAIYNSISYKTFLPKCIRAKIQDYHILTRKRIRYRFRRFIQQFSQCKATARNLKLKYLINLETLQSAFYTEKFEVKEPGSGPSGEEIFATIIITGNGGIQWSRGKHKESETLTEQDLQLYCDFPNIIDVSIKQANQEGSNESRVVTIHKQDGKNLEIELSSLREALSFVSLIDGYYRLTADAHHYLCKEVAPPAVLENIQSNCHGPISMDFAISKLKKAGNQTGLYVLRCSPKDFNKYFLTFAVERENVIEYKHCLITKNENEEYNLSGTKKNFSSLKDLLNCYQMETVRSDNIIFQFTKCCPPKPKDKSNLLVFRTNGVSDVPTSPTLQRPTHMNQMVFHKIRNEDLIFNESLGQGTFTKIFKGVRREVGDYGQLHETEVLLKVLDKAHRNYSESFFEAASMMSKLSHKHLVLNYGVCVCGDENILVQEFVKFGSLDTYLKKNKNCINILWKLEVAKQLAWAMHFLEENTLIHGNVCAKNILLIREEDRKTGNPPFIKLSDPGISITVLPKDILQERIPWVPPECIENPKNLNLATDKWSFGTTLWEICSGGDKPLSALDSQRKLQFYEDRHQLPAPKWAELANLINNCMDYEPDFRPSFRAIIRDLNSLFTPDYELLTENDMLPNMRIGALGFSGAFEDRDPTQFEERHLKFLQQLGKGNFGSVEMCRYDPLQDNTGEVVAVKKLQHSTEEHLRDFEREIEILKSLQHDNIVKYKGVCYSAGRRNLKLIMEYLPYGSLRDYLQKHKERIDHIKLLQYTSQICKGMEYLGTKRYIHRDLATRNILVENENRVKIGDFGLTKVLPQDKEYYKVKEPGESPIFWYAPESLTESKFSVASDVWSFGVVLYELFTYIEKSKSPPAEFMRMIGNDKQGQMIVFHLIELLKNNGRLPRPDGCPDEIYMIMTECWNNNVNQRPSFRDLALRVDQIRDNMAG

Row | Compound | pIC50 [1] | pIC50 [2]
1 | CC(=O)N[C@H]1CCN(c2cc(Nc3cnccn3)nc(N[C@@H](C)c3ccc(F)cc3)c2)C1 [Example 38, N-{(S)-1-[2-{[(S)-1-(4-Fluorophenyl)ethyl]amino}-6-(pyrazin-2-ylamino)pyridin-4-yl]pyrrolidin-3-yl}acetamide hydrochloride] | 8.64 | 7.07
2 | C[C@H](Nc1cc(-c2ccc(F)cc2)cc(Nc2cnccn2)n1)c1ccc(F)cc1 [Example 120, (S)-4-(4-Fluorophenyl)-N^2-[1-(4-fluorophenyl)ethyl]-N^6-(pyrazin-2-yl)pyridine-2,6-diamine hydrochloride] | 7.64 | 5.77
3 | C[C@H](Nc1nc(Cl)cc(Nc2cnccn2)n1)c1ccc(F)cc1 [Example 9, (S)-6-Chloro-N^2-[1-(4-fluorophenyl)ethyl]-N^4-(pyrazin-2-yl)pyrimidine-2,4-diamine] | 7.80 | 6.44
4 | CC(C)C1(O)CN(c2cc(Nc3cnccn3)nc(N[C@@H](C)c3ccc(F)cc3)c2)C1 [Example 204, (S)-1-{2-[1-(4-Fluorophenyl)ethylamino]-6-(pyrazin-2-ylamino)pyridin-4-yl}-3-isopropylazetidin-3-ol hydrochloride] | 8.09 | 6.66
5 | C[C@H](Nc1cc(C(=O)NCC(F)(F)F)cc(Nc2cnccn2)n1)c1ccc(F)cc1 [Example 171, (S)-2-[1-(4-Fluorophenyl)ethylamino]-6-(pyrazin-2-ylamino)-N-(2,2,2-trifluoroethyl) isonicotinamide] | 8.72 | 6.24
6 | Cc1cnc(Nc2cc(-c3cnn(C)c3)cc(N[C@@H](C)c3ccc(F)cc3)n2)cn1 [Example 214, (S)—N^2-[1-(4-Fluorophenyl)ethyl]-4-(1-methyl-1H-pyrazol-4-yl)-N^6-(5-methylpyrazin-2-yl)pyridine-2,6-diamine] | 8.26 | 6.42
7 | C[C@H](Nc1nc(Nc2cnccn2)cc(N2CCCNC2=O)n1)c1ccc(F)cc1 [Example 18, (S)-1-{2-[1-(4-Fluorophenyl)ethylamino]-6-(pyrazin-2-ylamino)pyrimidin-4-yl}tetrahydropyrimidin-2(1H)-one] | 8.52 | 6.89
8 | COCn1cc(-c2cc(Nc3cnccn3)nc(N[C@@H](C)c3ccc(F)cc3)c2)cn1 [Example 219, (S)—N^2-[1-(4-Fluorophenyl)ethyl]-4-[1-(methoxymethyl)-1H-pyrazol-4-yl]-N^6-(pyrazin-2-yl)pyridine-2,6-diamine] | 8.59 | 7.16
9 | CNC1CN(c2cc(Nc3cnccn3)nc(N[C@@H](C)c3ccc(F)cc3)n2)C1 [Example 221, (S)—N^2-[1-(4-Fluorophenyl)ethyl]-6-[3-(methylamino)azetidin-1-yl]-N^4-(pyrazin-2-yl)pyrimidine-2,4-diamine] | 8.82 | 7.23
10 | C[C@H](Nc1cc(-c2cnn(C3CC3)c2)cc(Nc2cnccn2)n1)c1ccc(F)cc1 [Example 218, (S)-4-(1-Cyclopropyl-1H-pyrazol-4-yl)-N^2-[1-(4-fluorophenyl)ethyl]-N^6-(pyrazin-2-yl)pyridine-2,6-diamine] | 8.66 | 7.07
11 | C[C@H](Nc1nc(Nc2cnccn2)cc(-c2cncnc2)n1)c1ccc(F)cc1 [Example 52, (S)—N^2-[1-(4-Fluorophenyl)ethyl]-N^6-(pyrazin-2-yl)-4,5′-bipyrimidine-2,6-diamine] | 8.70 | 6.80
12 | C[C@H](Nc1cc(N2CC(O)(C(F)(F)F)C2)cc(Nc2cnccn2)n1)c1ccc(F)cc1 [Example 206, (S)-1-{2-[1-(4-Fluorophenyl)ethylamino]-6-(pyrazin-2-ylamino)pyridin-4-yl}-3-(trifluoromethyl)azetidin-3-ol hydrochloride] | 8.00 | 6.44
13 | C[C@H](Nc1cc(N2CCN(S(C)(=O)=O)CC2)cc(Nc2cnccn2)n1)c1ccc(F)cc1 [Example 124, (S)—N^2-[1-(4-Fluorophenyl)ethyl]-4-[4-(methylsulfonyl)piperazin-1-yl]-N^6-(pyrazin-2-yl)pyridine-2,6-diamine hydrochloride] | 8.89 | 7.18
14 | Cn1cc(-c2cc(Nc3cnccn3)nc(NC(CO)c3ccc(F)cc3)c2)cn1 (centres unmarked) [Example 179, 2-(4-Fluorophenyl)-2-[4-(1-methyl-1H-pyrazol-4-yl)-6-(pyrazin-2-ylamino)pyridin-2-ylamino]ethanol] | 8.59 | 6.48
15 | C[C@H](Nc1cc(N2CC(N3CCOCC3)C2)cc(Nc2cnccn2)n1)c1ccc(F)cc1 [Example 233, (S)—N^2-[1-(4-Fluorophenyl)ethyl]-4-[3-morpholinoazetidin-1-yl]-N^6-(pyrazin-2-yl)pyridine-2,6-diamine] | 8.24 | 6.85
16 | C[C@H](Nc1nc(Nc2cnccn2)cc(N2CC(CN)C2)n1)c1ccc(F)cc1 [Example 230, (S)-6-[3-(Aminomethyl)azetidin-1-yl]-N^2-[1-(4-fluorophenyl)ethyl]-N^4-(pyrazin-2-yl)pyrimidine-2,4-diamine] | 8.92 | 7.20

Continued, values first:

Row | pIC50 [1] | pIC50 [2] | Compound
17 | 9.01 | 7.00 | C[C@H](Nc1nc(Nc2cnccn2)cc(-c2ccnc(O)c2)n1)c1ccc(F)cc1 [Example 25, (S)-4-{2-[1-(4-Fluorophenyl)ethylamino]-6-(pyrazin-2-ylamino)pyrimidin-4-yl}pyridin-2-ol]
18 | 8.92 | 7.30 | C[C@H](Nc1nc(Nc2cnccn2)cc(N2CC(C(=O)N3CCCCC3)C2)n1)c1ccc(F)cc1 [Example 195, (S)-(1-{2-[1-(4-Fluorophenyl)ethylamino]-6-(pyrazin-2-ylamino)pyrimidin-4-yl}azetidin-3-yl)(piperidin-1-yl)methanone]
19 | 9.21 | 7.21 | C[C@H](Nc1cc(-c2cccnc2)cc(Nc2cnccn2)n1)c1ccc(F)cc1 [Example 5, (S)—N^2′-[1-(4-Fluorophenyl)ethyl]-N^6′-(pyrazin-2-yl)-3,4′-bipyridine-2′,6′-diamine hydrochloride]
20 | 9.09 | 7.44 | C[C@H](Nc1nc(Nc2cnccn2)cc(-c2cn[nH]c2)n1)c1ccc(F)cc1 [Example 11, (S)—N^2-[1-(4-Fluorophenyl)ethyl]-N^4-(pyrazin-2-yl)-6-(1H-pyrazol-4-yl)pyrimidine-2,4-diamine hydrochloride]
21 | 8.92 | 7.24 | CCS(=O)(=O)NC1CN(c2cc(Nc3cnccn3)nc(N[C@@H](C)c3ccc(F)cc3)n2)C1 [Example 190, (S)—N-(1-{2-[1-(4-Fluorophenyl)ethylamino]-6-(pyrazin-2-ylamino)pyrimidin-4-yl}azetidin-3-yl)ethanesulfonamide]
22 | 9.40 | 7.52 | CC(=O)N[C@H]1CCN(c2cc(Nc3cnccn3)nc(N[C@@H](C)c3ccc(F)cc3)n2)C1 [Example 33, N-{(S)-1-[2-{[(S)-1-(4-Fluorophenyl)ethyl]amino}-6-(pyrazin-2-ylamino)pyrimidin-4-yl]pyrrolidin-3-yl}acetamide maleate]
23 | 9.29 | 7.23 | C[C@H](Nc1nc(Nc2cnccn2)cc(-c2cn[nH]c2)n1)c1ccc(F)cc1 [Example 34, (S)—N^2-[1-(4-Fluorophenyl)ethyl]-N^4-(pyrazin-2-yl)-6-(1H-pyrazol-4-yl)pyrimidine-2,4-diamine maleate]
24 | 8.96 | 7.70 | C[C@H](Nc1nc(Nc2cnccn2)cc(N2CC(NC(N)=O)C2)n1)c1ccc(F)cc1 [Example 227, (S)-1-(1-{2-[1-(4-Fluorophenyl)ethylamino]-6-(pyrazin-2-ylamino)pyrimidin-4-yl}azetidin-3-yl)urea]
25 | 8.96 | 7.62 | 4-{2-[(1S)-1-(4-Fluorophenyl)ethylamino]-6-(pyrazin-2-ylamino)pyrimidin-4-yl}-1λ^6,4-thiomorpholin-1,1-dione [Example 226]

From patent publication US8586591B2, “Aminopyrazine derivative and medicine” (Nippon Shinyaku Co., Ltd., priority 2009, dated 2013)
